The record followed here is article PMC9179341, “Design of New Potent and Selective Thiophene-Based KV1.3 Inhibitors and Their Potential for Anticancer Activity” (Cancers, 2022).

Data set [1] deals with KV1.6 (Homo sapiens, UniProt P17658). The experiment in a line: Selectivity, HiClamp Xenopus laevis heterologous expression system, KV1.6. The data set is classed as cell-based. As to conditions: for IC50: HiClamp, oocytes, NA = no significant inhibition, no IC50 determined; for Effect on KV1.6 channel: at a concentration of the compound's IC50 value for KV1.3. The procedure:
(§1) Ion channels (Kv1.x, Kv2.1, Kv4.2, Kv10.1) were expressed in Xenopus laevis oocytes by linearization of the plasmids and subsequent in vitro transcription using a commercial T7 or SP6 mMESSAGE mMACHINE transcription kit (Ambion, Carlsbad, California, USA). Defolliculated Xenopus oocytes were then injected with 20–50 nL of the cRNA at a concentration of 1 ng/nL using a micro-injector (Drummond Scientific1, Broomall, PA, USA). The oocytes were incubated in a solution containing (in mM): NaCl, 96; KCl, 2; CaCl2, 1.8; MgCl2, 2 and HEPES, 5 (pH 7.5), supplemented with 50 mg/L gentamycin sulfate and 90 mg/L theophylline. After ex vivo translation, the ion channels were correctly inserted in the cell membrane of the oocytes.
(§2) Two-electrode voltage-clamp recordings were performed at room temperature (18–22 °C) using a Geneclamp 500 amplifier (Molecular Devices, San Jose, CA, USA) and pClamp data acquisition (Axon Instruments, Union City, CA, USA) and using an integrated digital TEVC amplifier controlled by HiClamp, an automated Voltage-Clamp Screening System (Multi Channel Systems MCS GmbH, Reutlingen, Germany). Whole-cell currents from oocytes were recorded 1–4 days after injection. The bath solution composition was ND96 (in mM): NaCl, 96; KCl, 2; CaCl2, 1.8; MgCl2, 2 and HEPES, 5 (pH 7.5). Voltage and current electrodes were filled with a 3 M solution of KCl in H2O. Resistances of both electrodes were kept between 0.5 and 1.5 MΩ. The elicited Kv1.x, Kv2.1, Kv4.2 and Kv10.1 currents were filtered at 0.5 kHz and sampled at 2 kHz using a four-pole low-pass Bessel filter. Leak subtraction was performed using a P/4 protocol.
(§3) For the electrophysiological analysis of the compounds, a number of protocols were applied from a holding potential of −90 mV. Currents for Kv1.x, Kv2.1, Kv4.2 and Kv10.1 were evoked by 1 s depolarizing pulses either to 0 mV or to a range of voltage steps between −80 mV and +40 mV. For the analysis of the data, only the inhibition at the 0 mV step was used. The concentration dependency of all compounds was assessed by measuring the current inhibition in the presence of increasing compound concentrations. […] From this stock solution, adequate dilutions with a maximum of 0.5% DMSO were made for testing.
All electrophysiological data (Figure S1) are presented as means ± S.E.M of n ≥ three independent experiments unless otherwise indicated. All data were analyzed using pClamp Clampfit 10.4 (Molecular Devices, Downingtown, PA, USA), OriginPro 9 (Originlab, Northampton, MA, USA), GraphPad Prism 8 software (GraphPad Software, Inc., San Diego, CA, USA) and DataMining (Multi Channel Systems MCS GmbH, Reutlingen, Germany). The Dunnett test and one-way ANOVA were performed to calculate the significance of the induced inhibition compared to the control.

For data set [2], the target named is T1, KV1.3 (Homo sapiens, UniProt P22001). The experiment in a line: KV1.3 inhibition, HiClamp on Xenopus laevis oocytes. As to conditions: Xenopus laevis oocytes (marked * in Table 2). The data set is classed as cell-based. The procedure:
(§4) Stage V–VI oocytes were isolated by partial ovariectomy from Xenopus laevis frogs (African clawed frogs). […] After anaesthetizing the frogs by a 15-min submersion in 0.1% tricaine methanesulfonate (amino benzoic acid ethyl ester; Merck, Kenilworth, NJ, USA), pH 7.0, the oocytes were collected. The isolated oocytes were then washed with a 1.5 mg/mL collagenase solution for 2 h to remove the follicle layer.
as §1, with “theophylline.” for “theophylline. After ex vivo translation, the ion channels were correctly inserted in the cell membrane of the oocytes.”
as §2, with “Resistances of both electrodes were kept between 0.5 and 1.5 MΩ.” left out
as §3
(§5) All electrophysiological data (Figure S1) are presented as means ± S.E.M of n ≥ three independent experiments unless otherwise indicated. […] The Dunnett test and one-way ANOVA were performed to calculate the significance of the induced inhibition compared to the control.

The target in data set [3] is T1, KV1.3. The experiment in a line: KV1.3 inhibition, manual voltage-clamp on Xenopus laevis oocytes. It counts as cell-based. The settings on record: for inhibition at 10 µM: manual voltage-clamp on Xenopus laevis oocytes; for IC50: KV1.3, manual voltage-clamp, Xenopus laevis oocytes. The procedure: as §4
as §1, with “theophylline.” for “theophylline. After ex vivo translation, the ion channels were correctly inserted in the cell membrane of the oocytes.”
as §2, with “Resistances of both electrodes were kept between 0.5 and 1.5 MΩ.” left out
as §3, §5

Data set [4] in a line: Turbidimetric solubility assay. It counts as physicochemical. The settings on record: for solubility: pH 7.4, aqueous buffer, kinetic from dmso stock, phosphate-buffered saline, final 1% DMSO, read-out: Concentration at which compound was soluble (turbidimetric solubility test). The procedure:
For the phosphate-buffered saline, we dissolved 2.38 g of disodium hydrogen phosphate dodecahydrate, 0.19 g of potassium dihydrogen phosphate, and 8.0 g of sodium chloride in water and diluted it to 1000 mL with the same solvent. Then we adjusted the pH to 7.4. The stock DMSO solutions of the compounds were prepared at concentrations of 50 mM, 20 mM, 10 mM, and 1 mM. The final solutions (500 µM, 200 µM, 100 µM, and 10 µM) were prepared by adding 2 µL of the stock DMSO solution to 198 µL of phosphate-buffered saline. The absorbance (area scan) was measured at 620 nm for sample volume of 200 µL and the appearance of the solutions was checked by visual inspection.

Where [5] appears, read: 10 µM in PBS with 1 % final DMSO.
The mark [6] stands for this setting: 100 µM in PBS with 1 % final DMSO.
[7] abbreviates: 200 µM in PBS with 1 % final DMSO.
Setting [8] is: 500 µM in PBS with 1 % final DMSO.

T1 sequence (P22001 whole entry): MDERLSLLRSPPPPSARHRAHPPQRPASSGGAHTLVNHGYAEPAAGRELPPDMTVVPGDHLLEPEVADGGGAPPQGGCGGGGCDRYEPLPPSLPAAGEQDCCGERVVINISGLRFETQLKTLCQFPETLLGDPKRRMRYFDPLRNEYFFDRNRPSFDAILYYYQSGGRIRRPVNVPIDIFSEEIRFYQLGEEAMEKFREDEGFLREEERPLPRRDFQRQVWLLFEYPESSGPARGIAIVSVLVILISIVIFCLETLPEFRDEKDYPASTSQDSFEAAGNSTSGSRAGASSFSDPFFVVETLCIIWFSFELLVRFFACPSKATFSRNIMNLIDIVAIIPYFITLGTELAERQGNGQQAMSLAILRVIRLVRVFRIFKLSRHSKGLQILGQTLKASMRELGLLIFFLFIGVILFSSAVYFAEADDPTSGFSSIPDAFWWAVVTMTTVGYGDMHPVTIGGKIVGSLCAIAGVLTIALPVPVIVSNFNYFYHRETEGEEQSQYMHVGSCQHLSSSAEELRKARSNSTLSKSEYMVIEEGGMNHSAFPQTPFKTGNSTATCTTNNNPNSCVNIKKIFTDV
Sequence of KV1.6 (P17658 whole entry): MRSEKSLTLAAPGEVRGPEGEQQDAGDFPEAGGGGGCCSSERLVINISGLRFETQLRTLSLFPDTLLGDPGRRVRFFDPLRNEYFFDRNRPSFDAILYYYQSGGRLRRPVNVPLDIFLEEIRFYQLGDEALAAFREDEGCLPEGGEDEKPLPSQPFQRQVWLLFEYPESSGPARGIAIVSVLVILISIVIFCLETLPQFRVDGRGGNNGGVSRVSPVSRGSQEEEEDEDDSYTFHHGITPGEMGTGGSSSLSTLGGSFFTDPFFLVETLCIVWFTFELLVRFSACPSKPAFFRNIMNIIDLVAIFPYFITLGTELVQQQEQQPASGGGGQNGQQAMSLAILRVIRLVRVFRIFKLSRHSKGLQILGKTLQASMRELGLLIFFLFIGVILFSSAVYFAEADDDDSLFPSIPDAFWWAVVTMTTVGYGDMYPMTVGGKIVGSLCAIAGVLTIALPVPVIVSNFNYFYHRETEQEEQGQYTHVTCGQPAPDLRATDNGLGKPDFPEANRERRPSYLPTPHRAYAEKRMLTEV

As to `COc1ccccc1C(=O)NCC1(c2cccs2)CCOC1` (stereo not shown) [Compound 14], in data set [1], the IC50 turned out to be 0.43 ± 0.02 µM and the “Effect on KV1.6 channel” value is “significant effects”. For the same molecule, the IC50 in data set [2] is 1.03 ± 0.03 µM. For the same molecule, in data set [3], at 10 µM the inhibition was 92 ± 4% and half-maximal inhibition (IC50) required 0.57 µM.
As to `COc1ccc(F)cc1C(=O)NCC1(c2ccccc2)CCOCC1` [Compound 37], the IC50 in data set [1] was 4.33 ± 1.21 µM; in data set [2], 1.97 µM; in data set [3], 3.96 ± 0.47 µM. Besides, the “Effect on KV1.6 channel” value in data set [1] is given as “significantly inhibited”. In data set [3], this molecule yielded an inhibition at 10 µM of 94 ± 1%. The “absorbance at 620 nm” value is recorded as 0 in data set [4] (setting [5]), 0,003 in data set [4] (setting [6]), 0,005 in data set [4] (setting [7]) and 0,077 in data set [4] (setting [8]). In addition, the solubility in data set [4] was no less than 200 µM.
On to `COc1ccccc1C(=O)NCC1(c2cccs2)CCOCC1` [Compound 43], for which the 50% inhibitory concentration (IC50) in data set [1] was 0.83 ± 0.01 µM; in data set [2], 1.2 ± 0.02 µM; in data set [3], 0.59 µM. The “Effect on KV1.6 channel” value in data set [1] is reported as “significant effects”. This molecule had an inhibition at 10 µM in data set [3] of 92 ± 1%. For the same molecule, the “absorbance at 620 nm” value in data set [4] (setting [5]) was 0,01; in data set [4] (setting [6]), 0,002; in data set [4] (setting [7]) it was 0,003; in data set [4] (setting [8]), 0,011. In addition, the solubility in data set [4] was no less than 500 µM.
For the molecule `COc1ccccc1C(=O)NCC1(c2ccsc2)CCOCC1` [Compound 44], the “Effect on KV1.6 channel” value in data set [1] is “no significant effects”. Moreover, the half-inhibitory concentration (IC50) in data set [2] is 1.99 ± 0.61 µM; in data set [3], 0.47 µM. The inhibition at 10 µM in data set [3] turned out to be 96 ± 1%. For the same molecule, the “absorbance at 620 nm” value in data set [4] (setting [5]) was 0; in data set [4] (setting [6]) it was 0,003; in data set [4] (setting [7]), 0,003; in data set [4] (setting [8]), 0,014. The solubility in data set [4] is no less than 500 µM.

Broadly, the IC50 is the concentration that inhibits the measured activity by half. High values mean weaker potency in that assay, low ones greater potency in that assay. The inhibition is the drop in the measured response relative to a control, in per cent. A low value points to a weak effect.
